Laboratory results reported in patent US9062124B2, “GIP-based mixed agonists for treatment of metabolic disorders and obesity” (priority 2008, dated 2015).
Where a SMILES comes first, the peptide text is derived from it. Bridges are numbered along the chain shown (N, C = ends). Where no end group is shown, it is not given here. [ ]: non-standard residue; d: D form. PhLac = O=C(O)[C@@H](O)Cc1ccccc1; Dab = NCC[C@H](N)C(=O)O; Aib = CC(C)(N)C(=O)O

Legend:
[1] = target: T1, glucagon receptor (Homo sapiens, UniProt P47871); test: cAMP synthesis functional assay (firefly luciferase reporter in HEK293 cells), glucagon receptor; type: cell-based; conditions: for % activity*: glucagon receptor; for EC50: Glucagon Receptor EC50, nM; for EC50 / Glucagon Receptor relative activity: Table 1; for Glucagon Receptor relative activity: relative to the native hormone of the indicated receptor
T1 construct: expressed in transfected cells; host or cells: HEK293

[2] = target: T2, GLP-1 receptor (Homo sapiens, UniProt P43220); test: cAMP synthesis functional assay (firefly luciferase reporter in HEK293 cells), GLP-1 receptor; type: cell-based; conditions: Table 1; for GLP-1 Receptor relative activity: relative to the native hormone of the indicated receptor; for EC50: GLP-1 Receptor EC50, nM
T2 construct: expressed in transfected cells; host or cells: HEK293
T2 sequence (P43220 24-463, species assumed): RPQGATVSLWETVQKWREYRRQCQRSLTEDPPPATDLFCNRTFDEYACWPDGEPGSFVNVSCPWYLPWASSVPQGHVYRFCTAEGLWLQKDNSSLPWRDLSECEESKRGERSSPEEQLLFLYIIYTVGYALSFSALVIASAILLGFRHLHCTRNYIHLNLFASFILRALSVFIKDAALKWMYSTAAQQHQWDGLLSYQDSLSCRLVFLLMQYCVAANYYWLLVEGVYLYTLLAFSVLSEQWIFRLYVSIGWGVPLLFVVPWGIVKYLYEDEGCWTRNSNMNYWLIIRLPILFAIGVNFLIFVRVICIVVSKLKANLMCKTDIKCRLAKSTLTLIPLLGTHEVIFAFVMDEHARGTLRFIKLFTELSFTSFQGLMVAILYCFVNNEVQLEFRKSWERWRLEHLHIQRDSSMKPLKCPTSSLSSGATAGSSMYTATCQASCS

T1 sequence (P47871 26-477): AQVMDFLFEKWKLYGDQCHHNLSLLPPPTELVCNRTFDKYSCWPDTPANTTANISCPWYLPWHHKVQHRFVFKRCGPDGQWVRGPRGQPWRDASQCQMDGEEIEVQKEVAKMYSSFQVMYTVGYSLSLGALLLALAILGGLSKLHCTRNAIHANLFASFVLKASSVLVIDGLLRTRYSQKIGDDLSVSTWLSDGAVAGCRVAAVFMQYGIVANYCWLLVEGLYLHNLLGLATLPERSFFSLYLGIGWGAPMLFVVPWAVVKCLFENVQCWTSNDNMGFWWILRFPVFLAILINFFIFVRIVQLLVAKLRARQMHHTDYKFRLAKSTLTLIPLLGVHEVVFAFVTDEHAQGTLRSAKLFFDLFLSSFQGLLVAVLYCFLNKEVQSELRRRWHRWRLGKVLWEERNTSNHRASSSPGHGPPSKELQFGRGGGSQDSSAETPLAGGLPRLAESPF

Compound	Glucagon Receptor relative activity [1]	GLP-1 Receptor relative activity [2]	also measured
CNC(=O)CC[C@H](NC(=O)[C@H](CO)NC(=O)[C@@H](N)Cc1c[nH]cn1)C(=O)NCC(=O)N[C@H](C(=O)N[C@@H](Cc1ccccc1)C(=O)N[C@H](C(=O)N[C@@H](CO)C(=O)N[C@@H](CC(=O)O)C(=O)N[C@@H](Cc1ccc(O)cc1)C(=O)N[C@@H](CO)C(=O)N[C@@H](CCCCN)C(=O)N[C@@H](Cc1ccc(O)cc1)C(=O)N[C@@H](CC(C)C)C(=O)N[C@@H](CC(=O)O)C(=O)NC(C)(C)C(=O)N[C@@H](CCCNC(=N)N)C(=O)N[C@@H](CCCNC(=N)N)C(=O)N[C@@H](C)C(=O)N[C@@H](C)C(=O)N[C@@H](CC(=O)O)C(=O)N[C@@H](Cc1ccccc1)C(=O)N[C@H](C(=O)N[C@@H](C)C(=O)N[C@@H](Cc1c[nH]c2ccccc12)C(=O)N[C@@H](CC(C)C)C(=O)N[C@@H](CCSC)C(=O)N[C@@H](CC(=O)O)C(=O)N[C@@H](CCC(=O)O)C(=O)O)C(C)C)[C@@H](C)O)[C@@H](C)O [SEQ ID NO: 251]	–	–	% activity* ([1]; Table 6): 55%
CC(=O)NCC[C@H](NC(=O)[C@H](CO)NC(=O)[C@@H](N)Cc1c[nH]cn1)C(=O)NCC(=O)N[C@H](C(=O)N[C@@H](Cc1ccccc1)C(=O)N[C@H](C(=O)N[C@@H](CO)C(=O)N[C@@H](CC(=O)O)C(=O)N[C@@H](Cc1ccc(O)cc1)C(=O)N[C@@H](CO)C(=O)N[C@@H](CCCCN)C(=O)N[C@@H](Cc1ccc(O)cc1)C(=O)N[C@@H](CC(C)C)C(=O)N[C@@H](CC(=O)O)C(=O)NC(C)(C)C(=O)N[C@@H](CCCNC(=N)N)C(=O)N[C@@H](CCCNC(=N)N)C(=O)N[C@@H](C)C(=O)N[C@@H](C)C(=O)N[C@@H](CC(=O)O)C(=O)N[C@@H](Cc1ccccc1)C(=O)N[C@H](C(=O)N[C@@H](C)C(=O)N[C@@H](Cc1c[nH]c2ccccc12)C(=O)N[C@@H](CC(C)C)C(=O)N[C@@H](CC(C)C)C(=O)N[C@@H](CC(=O)O)C(=O)N[C@H](C(=O)NCC(=O)N1CCC[C@H]1C(=O)N[C@@H](CO)C(=O)N[C@@H](CO)C(=O)NCC(=O)N[C@@H](C)C(=O)N1CCC[C@H]1C(=O)N1CCC[C@H]1C(=O)N1CCC[C@H]1C(=O)N[C@@H](CO)C(N)=O)[C@@H](C)O)C(C)C)[C@@H](C)O)[C@@H](C)O [SEQ ID NO: 254] (H-HS[Dab](Ac)GTFTSDYSKYLD[Aib]RRAADFVAWLLDTGPSSGAPPPS-NH2; N-terminus assumed)	–	–	% activity* ([1]; Table 7): 113%
CC(=O)NCC[C@H](NC(=O)[C@H](CO)NC(=O)[C@@H](N)Cc1c[nH]cn1)C(=O)NCC(=O)N[C@H](C(=O)N[C@@H](Cc1ccccc1)C(=O)N[C@H](C(=O)N[C@@H](CO)C(=O)N[C@@H](CC(=O)O)C(=O)N[C@@H](Cc1ccc(O)cc1)C(=O)N[C@@H](CO)C(=O)N[C@@H](CCCCN)C(=O)N[C@@H](Cc1ccc(O)cc1)C(=O)N[C@@H](CC(C)C)C(=O)N[C@@H](CC(=O)O)C(=O)NC(C)(C)C(=O)N[C@@H](CCCNC(=N)N)C(=O)N[C@@H](CCCNC(=N)N)C(=O)N[C@@H](C)C(=O)N[C@H](C(=O)N[C@@H](CC(=O)O)C(=O)N[C@@H](Cc1ccccc1)C(=O)N[C@H](C(=O)N[C@H](C(=O)N[C@@H](Cc1c[nH]c2ccccc12)C(=O)N[C@@H](CC(C)C)C(=O)N[C@@H](CC(C)C)C(=O)N[C@@H](CC(=O)O)C(=O)N[C@@H](CCC(=O)O)C(=O)O)[C@@H](C)O)C(C)C)[C@@H](C)O)[C@@H](C)O)[C@@H](C)O [SEQ ID NO: 256] (H-HS[Dab](Ac)GTFTSDYSKYLD[Aib]RRATDFVTWLLDE-OH; N-terminus and C-terminus assumed)	–	–	% activity* ([1]; Table 7): 46%
CC[C@H](C)[C@H](NC(=O)[C@H](Cc1ccccc1)NC(=O)[C@H](CCC(=O)O)NC(=O)[C@H](CCCCN)NC(=O)[C@H](CCC(N)=O)NC(=O)[C@H](Cc1c[nH]cn1)NC(=O)[C@@H](NC(=O)[C@@H]1CCC(=O)NCCCC[C@H](NC(=O)[C@H](CO)NC(=O)[C@H](Cc2ccc(O)cc2)NC(=O)[C@H](CC(=O)O)NC(=O)[C@H](CO)NC(=O)[C@@H](NC(=O)[C@H](Cc2ccccc2)NC(=O)[C@@H](NC(=O)CNC(=O)[C@H](CCC(N)=O)NC(=O)[C@H](CO)NC(=O)[C@@H](N)Cc2c[nH]cn2)[C@@H](C)O)[C@@H](C)O)C(=O)N[C@@H](Cc2ccc(O)cc2)C(=O)N[C@@H](CC(C)C)C(=O)N[C@@H](CC(=O)O)C(=O)N1)[C@@H](C)CC)C(=O)N[C@@H](C)C(=O)N[C@@H](Cc1c[nH]c2ccccc12)C(=O)N[C@@H](CC(C)C)C(=O)N[C@@H](CCSC)C(=O)N[C@@H](CC(N)=O)C(=O)N[C@H](C(N)=O)[C@@H](C)O [mt-63]	6.03%	12.90%	EC50 [1]: 3.15 nM
CC[C@H](C)[C@H](NC(=O)[C@H](Cc1ccccc1)NC(=O)[C@H](CCC(=O)O)NC(=O)[C@@H]1CCCCNC(=O)CC[C@H](NC(=O)[C@H](CC(=O)O)NC(=O)[C@H](CC(C)C)NC(=O)[C@H](Cc2ccc(O)cc2)NC(=O)[C@@H](NC(=O)[C@H](CO)NC(=O)[C@H](Cc2ccc(O)cc2)NC(=O)[C@H](CC(=O)O)NC(=O)[C@H](CO)NC(=O)[C@@H](NC(=O)[C@H](Cc2ccccc2)NC(=O)[C@@H](NC(=O)CNC(=O)[C@H](CCC(N)=O)NC(=O)[C@H](CO)NC(=O)[C@@H](N)Cc2c[nH]cn2)[C@@H](C)O)[C@@H](C)O)[C@@H](C)CC)C(=O)N[C@@H]([C@@H](C)CC)C(=O)N[C@@H](Cc2c[nH]cn2)C(=O)N[C@@H](CCC(N)=O)C(=O)N1)C(=O)N[C@@H](CS)C(=O)N[C@@H](Cc1c[nH]c2ccccc12)C(=O)N[C@@H](CC(C)C)C(=O)N[C@@H](CC(C)C)C(=O)N[C@@H](C)C(=O)N[C@@H](CCC(N)=O)C(N)=O [mt-84] (H-HSQGTFTSDYSIYLDEIHQKEFICWLLAQ-NH2; lactam 16-20; N-terminus assumed)	13.33%	50.00%	EC50 [1]: 0.45 nM; EC50 [2]: 0.16 nM
CC[C@H](C)[C@H](NC(=O)[C@H](Cc1ccccc1)NC(=O)[C@@H]1CCC(=O)NCCCC[C@@H]2NC(=O)[C@@H](NC(=O)[C@H](CC(=O)O)NC(=O)[C@H](CC(C)C)NC(=O)[C@H](Cc3ccc(O)cc3)NC(=O)[C@@H](NC(=O)[C@H](CO)NC(=O)[C@H](Cc3ccc(O)cc3)NC(=O)[C@H](CC(=O)O)NC(=O)[C@H](CO)NC(=O)[C@@H](NC(=O)[C@H](Cc3ccccc3)NC(=O)[C@@H](NC(=O)CNC(=O)[C@H](CCC(N)=O)NC(=O)[C@H](CO)NC(=O)[C@@H](N)Cc3c[nH]cn3)[C@@H](C)O)[C@@H](C)O)[C@@H](C)CC)CCC(=O)NCCCC[C@H](NC(=O)[C@H](CCC(N)=O)NC(=O)[C@H](Cc3c[nH]cn3)NC2=O)C(=O)N1)C(=O)N[C@@H](C)C(=O)N[C@@H](Cc1c[nH]c2ccccc12)C(=O)N[C@@H](CC(C)C)C(=O)N[C@@H](CC(C)C)C(=O)N[C@@H](C)C(=O)N[C@@H](CCC(N)=O)C(N)=O [mt-93]	14.33%	150.00%	EC50 [2]: 0.04 nM
CC[C@H](C)[C@H](NC(=O)[C@H](CO)NC(=O)[C@H](Cc1ccc(O)cc1)NC(=O)[C@H](CC(=O)O)NC(=O)[C@H](CO)NC(=O)[C@@H](NC(=O)[C@@H](O)Cc1ccccc1)[C@@H](C)CC)C(=O)N[C@@H](C)C(=O)N[C@@H](CCSC)C(=O)N[C@@H](CC(=O)O)C(=O)N[C@H]1CCC(=O)NCCCC[C@@H](C(=O)N[C@@H](CC(=O)O)C(=O)N[C@@H](Cc2ccccc2)C(=O)N[C@H](C(=O)N[C@@H](CC(N)=O)C(=O)N[C@@H](Cc2c[nH]c3ccccc23)C(=O)N[C@@H](CC(C)C)C(=O)N[C@@H](CC(C)C)C(=O)N[C@@H](C)C(=O)N[C@@H](CCC(N)=O)C(N)=O)C(C)C)NC(=O)[C@H](CCC(N)=O)NC(=O)[C@H](Cc2c[nH]cn2)NC(=O)[C@H]([C@@H](C)CC)NC1=O [mt-113] (H-[PhLac]ISDYSIAMDEIHQKDFVNWLLAQ-NH2; lactam 11-15)	0.07%	0.04%	–
CC[C@H](C)[C@@H]1NC(=O)[C@@H](NC(=O)[C@H](CC(=O)O)NC(=O)[C@H](CC(C)C)NC(=O)[C@H](Cc2ccc(O)cc2)NC(=O)[C@H](CCCCN)NC(=O)[C@H](CO)NC(=O)[C@H](Cc2ccc(O)cc2)NC(=O)[C@H](CC(=O)O)NC(=O)[C@H](CO)NC(=O)[C@@H](NC(=O)[C@@H](O)Cc2ccccc2)[C@@H](C)O)CCC(=O)NCCCC[C@@H](C(=O)N[C@@H](CC(=O)O)C(=O)N[C@@H](Cc2ccccc2)C(=O)N[C@H](C(=O)N[C@@H](CC(N)=O)C(=O)N[C@@H](Cc2c[nH]c3ccccc23)C(=O)N[C@@H](CC(C)C)C(=O)N[C@@H](CC(C)C)C(=O)N[C@@H](C)C(=O)N[C@@H](CCC(N)=O)C(N)=O)C(C)C)NC(=O)[C@H](CCC(N)=O)NC(=O)[C@H](Cc2c[nH]cn2)NC1=O [mt-114] (H-[PhLac]TSDYSKYLDEIHQKDFVNWLLAQ-NH2; lactam 11-15)	0.28%	0.05%	–
CC[C@H](C)[C@H](NC(=O)[C@H](CO)NC(=O)[C@H](Cc1ccc(O)cc1)NC(=O)[C@H](CC(=O)O)NC(=O)[C@H](CO)NC(=O)[C@@H](NC(=O)[C@H](Cc1ccccc1)NC(=O)[C@@H](NC(=O)CNC(=O)[C@H](CCC(N)=O)NC(=O)C(C)(C)N)[C@@H](C)O)[C@@H](C)O)C(=O)N[C@@H](Cc1ccc(O)cc1)C(=O)N[C@@H](CC(C)C)C(=O)N[C@@H](CC(=O)O)C(=O)N[C@@H](CCC(=O)O)C(=O)N[C@@H](CCC(=O)O)C(=O)N[C@@H](C)C(=O)N[C@H](C(=O)N[C@@H](CCCNC(=N)N)C(=O)N[C@@H](CC(C)C)C(=O)N[C@@H](Cc1ccccc1)C(=O)N[C@H](C(=O)N[C@@H](CC(N)=O)C(=O)N[C@@H](Cc1c[nH]c2ccccc12)C(=O)N[C@@H](CC(C)C)C(=O)N[C@@H](CC(C)C)C(=O)N[C@@H](C)C(=O)NCC(=O)NCC(=O)N1CCC[C@H]1C(=O)N[C@@H](CO)C(=O)N[C@@H](CO)C(=O)NCC(=O)N[C@@H](C)C(=O)N1CCC[C@H]1C(=O)N1CCC[C@H]1C(=O)N1CCC[C@H]1C(=O)N[C@@H](CO)C(N)=O)C(C)C)C(C)C [mt-194] (H-[Aib]QGTFTSDYSIYLDEEAVRLFVNWLLAGGPSSGAPPPS-NH2; N-terminus assumed)	–	0.63%	–
FTSDYSIYLDEQAAKEFVNWLLAGGPSSGAPPPS-NH2 [mt-192]	–	0.06%	–
